Reference: US20240254186A1, “GLP-1 Receptor Agonists Having Improved Pharmacological and Drug Delivery Properties” (priority 2021, published 2024)
Numbered stars: 1 amine (or outer) side, 2 acyl side, 3 side chain; on linkers, the order of the positions; unused ones are H or OH. Square brackets hold non-standard residues; d marks the D form. Side chains are listed from the residue outwards. Peptide text beside a SMILES is read from it. * marks the point of attachment. Dap(Nα-HOOC(CH2)16CO)OH = O=C(O)CCCCCCCCCCCCCCCCC(=O)N[C@@H](CN*)C(=O)O; X5 = O=C(O)CCCCCCCCCCCCCCCc1cn(-c2ccc(C[C@H](N[*:1])C(=O)[*:2])cc2)nn1; X3 = O=C(O)CCCCCCCCCCCCCCCc1cnnn1-c1ccc(C[C@H](N[*:1])C(=O)[*:2])cc1; X7 = C[C@@](Cc1ccc(-c2ccccc2)cc1)(N[*:1])C(=O)[*:2]; X4 = C[C@](Cc1ccc(-c2ccccc2)cc1)(N[*:1])C(=O)[*:2]; Bip = N[C@@H](Cc1ccc(-c2ccccc2)cc1)C(=O)O; C18 diacid = O=C(O)CCCCCCCCCCCCCCCCC(=O)*; X2 = O=C(CCc1ccc(I)cc1)N[C@@H](CN*)C(=O)O; αMePhe(2-F) = C[C@](N)(Cc1ccccc1F)C(=O)O; γGlu = O=C(O)[C@H](CCC(=O)[*:2])N[*:1]; PEG4 = NCCOCCOCCOCCOCCC(=O)O; αMeP = C[C@@]1(C(=O)O)CCCN1; AEEA = NCCOCCOCC(=O)O; Aib = CC(C)(N)C(=O)O; CO = O=C([*:1])[*:2]

Each compound was assayed against T1, hGLP1 receptor (Homo sapiens, UniProt P43220) (assay: cAMP HTRF agonist assay in HEK cells co-expressing the hGLP1 receptor and CRE-Luciferase construct). Conditions: Table 6; cell annotated (0% albumin); read-out: cAMP EC50.
T1 construct: expressed in transfected cells; host or cells: HEK (human embryonic kidney) cells co-expressing hGLP1 receptor and a CRE-Luciferase construct
T1 sequence (P43220 24-463): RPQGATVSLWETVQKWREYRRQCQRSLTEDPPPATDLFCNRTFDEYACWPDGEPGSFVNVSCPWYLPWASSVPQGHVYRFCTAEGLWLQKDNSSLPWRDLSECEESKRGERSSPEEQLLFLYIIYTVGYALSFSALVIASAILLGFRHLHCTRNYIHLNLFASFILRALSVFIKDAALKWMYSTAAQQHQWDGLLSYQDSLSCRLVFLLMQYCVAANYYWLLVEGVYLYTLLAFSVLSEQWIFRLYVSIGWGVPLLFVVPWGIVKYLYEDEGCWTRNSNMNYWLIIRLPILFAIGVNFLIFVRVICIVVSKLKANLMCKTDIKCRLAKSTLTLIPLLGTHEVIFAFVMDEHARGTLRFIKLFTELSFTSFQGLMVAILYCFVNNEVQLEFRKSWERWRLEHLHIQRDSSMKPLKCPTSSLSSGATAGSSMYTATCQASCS
Format: cell-based
Protocol: Human embryonic kidney cells (HEK) co-expressing the hGLP1 receptor and CRE-Luciferase construct were used to determine agonist potency in this assay. The cells were thawed briefly at 37° C., transferred to a sterile tube and re-suspended in complete media at 37° C. Cells were centrifuged at 1000 rpm for 5 minutes and cells collected; cells were re-suspended in assay buffer consisting of DPBS (GIBCO) with 500 μM of the phosphodiesterase inhibitor IBMX. […] The optimal cell density was determined to be 1000 cells/well; cells were added to wells in 384-well plates containing appropriate pre-prepared dilutions of compounds (test peptides or reference compound exendin-4), sealed and incubated with CO2 for 30 min. Test peptide solutions were diluted from 10 mM stock solutions; for most peptides an initial run was performed in duplicate from a maximal concentration of 1.0 μM, with 11 concentrations tested for each peptide using serial 1:3 dilution from this maximal concentration. […] The agonist assay was a homogeneous time-resolved fluorescence (HTRF) assay (Cisbio).
Following incubation of the cells for 30 minutes with test or reference peptides, 5 μL of the cAMP acceptor cAMP-d2, prepared previously as a working solution from frozen stock (1:20 dilution), was added to each well of the assay plate, along with 5 μL of anti-cAMP antibody-cryptate working solution (diluted 1:20 from frozen stock). The wells were incubated for 1 hour at room temperature, and fluorescence was then read at 665 and 615 nm with an Envision reader with TRF laser. Data were saved and analyzed using Prism software (GraphPad). Concentration-response analysis was performed using 4-parameter logistic fits of the resulting data, and EC50 values obtained for each test and reference compound.

**Q.** How did the EC50 turn out when `C[C@@H](O)[C@H](NC(=O)CNC(=O)[C@H](CCC(=O)O)NC(=O)[C@]1(C)CCCN1C(=O)[C@@H](N)Cc1c[nH]cn1)C(=O)N[C@@](C)(Cc1ccccc1F)C(=O)N[C@H](C(=O)N[C@@H](CO)C(=O)N[C@@H](CC(=O)O)C(=O)N[C@@H](Cc1ccc(-c2ccccc2)cc1)C(=O)N[C@@H](Cc1ccc(-n2cc(CCCCCCCCCCCCCCCC(=O)O)nn2)cc1)C(N)=O)[C@@H](C)O` [4-70-i1, H2N-His-α-MePro-Glu-Gly-Thr-α-MePhe(2-F)-Thr-Ser-Asp-Bip-FN3(C18 acid)-C(O)NH2] (H-H[αMeP]EGT[αMePhe(2-F)]TSD[Bip][X5]-NH2) was run?
**A.** 0.04 nM

**Q.** How did the EC50 turn out when `C[C@@H](O)[C@H](NC(=O)CNC(=O)[C@H](CCC(=O)O)NC(=O)[C@]1(C)CCCN1C(=O)[C@@H](N)Cc1c[nH]cn1)C(=O)N[C@@](C)(Cc1ccccc1F)C(=O)N[C@H](C(=O)N[C@@H](CO)C(=O)N[C@@H](CC(=O)O)C(=O)N[C@@H](Cc1ccc(-c2ccccc2)cc1)C(=O)N[C@@H](Cc1ccc(-n2nncc2CCCCCCCCCCCCCCCC(=O)O)cc1)C(N)=O)[C@@H](C)O` [4-70-i2, H2N-His-α-MePro-Glu-Gly-Thr-α-MePhe(2-F)-Thr-Ser-Asp-Bip-FN3(C18 acid)-C(O)NH2] (H-H[αMeP]EGT[αMePhe(2-F)]TSD[Bip][X3]-NH2) was run?
**A.** 0.7 nM

**Q.** How did the EC50 turn out when `C[C@@H](O)[C@H](NC(=O)CNC(=O)[C@H](CCC(=O)O)NC(=O)[C@]1(C)CCCN1C(=O)[C@@H](N)Cc1c[nH]cn1)C(=O)N[C@@](C)(Cc1ccccc1F)C(=O)N[C@H](C(=O)N[C@@H](CO)C(=O)N[C@@H](CC(=O)O)C(=O)N[C@@H](Cc1ccc(-n2cc(CCCCCCCCCCCCCCCC(=O)O)nn2)cc1)C(=O)N[C@@H](Cc1ccc(-c2ccccc2)cc1)C(N)=O)[C@@H](C)O` [4-71-i1, H2N-His-α-MePro-Glu-Gly-Thr-α-MePhe(2-F)-Thr-Ser-Asp-FN3(C18 acid)-Bip-C(O)NH2] (H-H[αMeP]EGT[αMePhe(2-F)]TSD[X5][Bip]-NH2) was run?
**A.** 0.009 nM

**Q.** `C[C@@H](O)[C@H](NC(=O)CNC(=O)[C@H](CCC(=O)O)NC(=O)[C@]1(C)CCCN1C(=O)[C@@H](N)Cc1c[nH]cn1)C(=O)N[C@@](C)(Cc1ccccc1F)C(=O)N[C@H](C(=O)N[C@@H](CO)C(=O)N[C@@H](CC(=O)O)C(=O)N[C@@H](Cc1ccc(-n2nncc2CCCCCCCCCCCCCCCC(=O)O)cc1)C(=O)N[C@@H](Cc1ccc(-c2ccccc2)cc1)C(N)=O)[C@@H](C)O` [4-71-i2, H2N-His-α-MePro-Glu-Gly-Thr-α-MePhe(2-F)-Thr-Ser-Asp-FN3(C18 acid)-Bip-C(O)NH2] (H-H[αMeP]EGT[αMePhe(2-F)]TSD[X3][Bip]-NH2) was tested. Which EC50 did it give?
**A.** 0.1 nM

**Q.** How did the EC50 turn out when `C[C@@H](O)[C@H](NC(=O)CNC(=O)[C@H](CCC(=O)O)NC(=O)[C@]1(C)CCCN1C(=O)[C@@H](N)Cc1c[nH]cn1)C(=O)N[C@@](C)(Cc1ccccc1F)C(=O)N[C@H](C(=O)N[C@@H](CO)C(=O)N[C@@H](CC(=O)O)C(=O)N[C@@H](Cc1ccc(-c2ccccc2)cc1)C(=O)N[C@@](C)(Cc1ccc(-c2ccccc2)cc1)C(N)=O)[C@@H](C)O` [4-73-i1, H2N-His-α-MePro-Glu-Gly-Thr-α-MePhe(2F)-Thr-Ser-Asp-Bip-α-MeBip-C(O)NH2] (H-H[αMeP]EGT[αMePhe(2-F)]TSD[Bip][X7]-NH2) was run?
**A.** 0.05 nM

**Q.** With `C[C@@H](O)[C@H](NC(=O)CNC(=O)[C@H](CCC(=O)O)NC(=O)[C@]1(C)CCCN1C(=O)[C@@H](N)Cc1c[nH]cn1)C(=O)N[C@@](C)(Cc1ccccc1F)C(=O)N[C@H](C(=O)N[C@@H](CO)C(=O)N[C@@H](CC(=O)O)C(=O)N[C@@H](Cc1ccc(-c2ccccc2)cc1)C(=O)N[C@](C)(Cc1ccc(-c2ccccc2)cc1)C(N)=O)[C@@H](C)O` [4-73-i2, H2N-His-α-MePro-Glu-Gly-Thr-α-MePhe(2F)-Thr-Ser-Asp-Bip-α-MeBip-C(O)NH2] (H-H[αMeP]EGT[αMePhe(2-F)]TSD[Bip][X4]-NH2) as the compound, how does the EC50 read?
**A.** 0.2 nM

Same assay, conditions: read-out: cAMP EC50, nM (0.1% albumin); Table 6, C-terminal PK-modifier conjugates; 0.1% albumin

**Q.** Which EC50 does the source give for `C[C@@H](O)[C@H](NC(=O)CNC(=O)[C@H](CCC(=O)O)NC(=O)[C@]1(C)CCCN1C(=O)[C@@H](N)Cc1c[nH]cn1)C(=O)N[C@@](C)(Cc1ccccc1F)C(=O)N[C@H](C(=O)N[C@@H](CO)C(=O)N[C@@H](CC(=O)O)C(=O)N[C@@H](Cc1ccc(-c2ccccc2)cc1)C(=O)N[C@@H](Cc1ccc(-c2ccccc2)cc1)C(=O)NC(C)(C)C(=O)N[C@@H](CCCCNC(=O)CCOCCOCCOCCOCCNC(=O)CC[C@H](NC(=O)CCCCCCCCCCCCCCCCC(=O)O)C(=O)O)C(N)=O)[C@@H](C)O` [4-65, H2N-His-α-MePro-Glu-Gly-Thr-α-MePhe(2-F)-Thr-Ser-Asp-Bip-Bip-C(O)NH-RY21] (H-H[αMeP]EGT[αMePhe(2-F)]TSD[Bip][Bip][Aib]K([PEG4-γGlu-C18 diacid])-NH2) here?
**A.** 3.8 nM

**Q.** Which EC50 does the source give for `C[C@@H](O)[C@H](NC(=O)CNC(=O)[C@H](CCC(=O)O)NC(=O)C(C)(C)NC(=O)[C@@H](N)Cc1c[nH]cn1)C(=O)N[C@@](C)(Cc1ccccc1F)C(=O)N[C@H](C(=O)N[C@@H](CO)C(=O)N[C@@H](CC(=O)O)C(=O)N[C@@H](Cc1ccc(-c2ccccc2)cc1)C(=O)N[C@H](Cc1ccc(OC(=O)NCCOCCOCC(=O)NCCOCCOCC(N)=O)cc1)C(N)=O)[C@@H](C)O` [(D)-4-42, H2N-His-Aib-Glu-Gly-Thr-α-MePhe(2-F)-Thr-Ser-Asp-Bip-D-Tyr(O-R4)-C(O)NH2] (H-H[Aib]EGT[αMePhe(2-F)]TSD[Bip][dY]([CO-AEEA-AEEA-NH2])-NH2) here?
**A.** 791 nM

**Q.** With `C[C@@H](O)[C@H](NC(=O)CNC(=O)[C@H](CCC(=O)O)NC(=O)C(C)(C)NC(=O)[C@@H](N)Cc1c[nH]cn1)C(=O)N[C@@](C)(Cc1ccccc1F)C(=O)N[C@H](C(=O)N[C@@H](CO)C(=O)N[C@@H](CC(=O)O)C(=O)N[C@@H](Cc1ccc(-c2ccccc2)cc1)C(=O)N[C@H](Cc1ccc(OC(=O)NCCOCCOCC(=O)NCCOCCOCC(=O)NC[C@H](NC(=O)CCCCCCCCCCCCCCCCC(=O)O)C(=O)O)cc1)C(N)=O)[C@@H](C)O` [(D)-4-43, H2N-His-Aib-Glu-Gly-Thr-α-MePhe(2-F)-Thr-Ser-Asp-Bip-D-Tyr(O-R5)-C(O)NH2] (H-H[Aib]EGT[αMePhe(2-F)]TSD[Bip][dY]([CO-AEEA-AEEA-Dap(Nα-HOOC(CH2)16CO)OH])-NH2) as the compound, how does the EC50 read?
**A.** 693 nM

**Q.** Which EC50 does the source give for `C[C@@H](O)[C@H](NC(=O)CNC(=O)[C@H](CCC(=O)O)NC(=O)C(C)(C)NC(=O)[C@@H](N)Cc1c[nH]cn1)C(=O)N[C@@](C)(Cc1ccccc1F)C(=O)N[C@H](C(=O)N[C@@H](CO)C(=O)N[C@@H](CC(=O)O)C(=O)N[C@@H](Cc1ccc(-c2ccccc2)cc1)C(=O)N[C@H](Cc1ccc(OC(=O)NCCOCCOCC(=O)NCCOCCOCC(=O)NCCOCCOCC(=O)NC[C@H](NC(=O)CCc2ccc(I)cc2)C(=O)O)cc1)C(N)=O)[C@@H](C)O` [(D)-4-44, H2N-His-Aib-Glu-Gly-Thr-α-MePhe(2-F)-Thr-Ser-Asp-Bip-D-Tyr(O-R6)-C(O)NH2] (H-H[Aib]EGT[αMePhe(2-F)]TSD[Bip][dY]([CO-AEEA-AEEA-AEEA-X2])-NH2) here?
**A.** 299 nM
